Values after ≈ are worked out from the molar mass of the structure shown. Like-named read-outs stand apart in the source and are kept apart here. Where a SMILES comes first, the peptide text is derived from it. Bridges are numbered along the chain shown (N, C = ends). [ ]: non-standard residue; d: D form. NMeS = CN[C@@H](CO)C(=O)O; NMeA = CN[C@@H](C)C(=O)O; Sar = CNCC(=O)O
T1: human NTCP (Homo sapiens, UniProt Q14973)
T1 construct: made in house; host or cells: wheat germ cell-free protein synthesis system
T1 sequence (Q14973 1-349): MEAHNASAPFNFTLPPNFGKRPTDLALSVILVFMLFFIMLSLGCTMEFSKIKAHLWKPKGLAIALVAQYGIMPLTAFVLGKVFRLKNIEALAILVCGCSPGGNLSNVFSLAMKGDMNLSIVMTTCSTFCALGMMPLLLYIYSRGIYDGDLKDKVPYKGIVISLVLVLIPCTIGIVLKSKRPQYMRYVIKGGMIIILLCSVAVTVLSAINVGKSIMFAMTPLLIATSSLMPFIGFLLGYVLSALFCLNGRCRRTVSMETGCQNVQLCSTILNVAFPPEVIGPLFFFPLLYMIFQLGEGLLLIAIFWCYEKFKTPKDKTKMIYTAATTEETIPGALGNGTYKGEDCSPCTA

T2: human NTCP on cells (HepG2-hNTCP-C4 cells overexpressing the human NTCP gene; primary human hepatocytes) (human), Q14973
T2 chain: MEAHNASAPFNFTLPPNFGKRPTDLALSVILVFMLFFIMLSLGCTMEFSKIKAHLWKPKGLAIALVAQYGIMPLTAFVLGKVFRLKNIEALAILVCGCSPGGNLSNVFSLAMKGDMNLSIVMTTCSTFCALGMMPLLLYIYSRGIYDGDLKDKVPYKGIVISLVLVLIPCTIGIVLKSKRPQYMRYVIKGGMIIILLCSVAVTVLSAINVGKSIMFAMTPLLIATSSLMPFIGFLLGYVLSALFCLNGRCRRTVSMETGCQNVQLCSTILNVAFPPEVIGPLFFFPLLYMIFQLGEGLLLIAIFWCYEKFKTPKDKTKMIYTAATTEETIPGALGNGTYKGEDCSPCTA

T3: His-tagged recombinant NTCP protein (human sodium taurocholate cotransporting polypeptide) (human), Q14973
T3 chain: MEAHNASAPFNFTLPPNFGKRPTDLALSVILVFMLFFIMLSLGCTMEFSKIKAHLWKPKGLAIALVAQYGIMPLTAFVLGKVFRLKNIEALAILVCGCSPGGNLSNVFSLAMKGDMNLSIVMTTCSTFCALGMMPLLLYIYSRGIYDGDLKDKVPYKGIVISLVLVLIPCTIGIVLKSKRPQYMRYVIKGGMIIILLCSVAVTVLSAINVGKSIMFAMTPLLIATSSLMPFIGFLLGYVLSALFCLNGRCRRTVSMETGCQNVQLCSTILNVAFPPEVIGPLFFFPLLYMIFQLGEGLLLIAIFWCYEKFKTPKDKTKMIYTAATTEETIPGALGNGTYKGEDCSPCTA


Key:
human NTCP = target: T1, human NTCP; assay: Surface plasmon resonance binding to immobilized recombinant NTCP; conditions: single-cycle kinetics, 1:1 binding model, NTCP immobilized on NTA-Ni2+
Procedure: (§1) FIG. 7 is a diagram showing the NTCP association constant of a peptide identified by first RaPID screening. A single-cycle reaction kinetics experiment was conducted using NTCP immobilized on surface (NTA-Ni^2+) involving varying concentrations of a cyclic peptide analyte. In each case, as shown in the drawing, the peptide was tested with 4-fold serial dilutions starting from the highest concentration of 200 or 1000 nM. A dissociation constant (KD) was determined using a 1:1 binding model.
as §1, with “9” for “7”, “focused library” for “first”, “association constant” for “reaction kinetics”
The association constant of each peptide for human NTCP was measured using a Biacore T200 apparatus (GE Healthcare Japan Corp.). The running buffer solution used was HBS-P+ (10 mM HEPES, 150 mM NaCl, and 0.05 vol % surfactant P20, pH 7.4) containing 0.1 vol % DMSO and 1 mM β-dodecyl-maltoside. 100 nM recombinant NTCP was immobilized on a NTA chip treated with Ni^2+ according to the manufacturer's instructions (baseline response: 1000 to 3000 refraction units). Peptides were injected as analytes at a flow rate of 60 μL/min, and association constants were modelled using a 1:1 binding model.

HBV genotype D = type: cell-based, hepatitis B virus; conditions: primary human hepatocytes; for HBs antigen in the culture supernatant: peptide at 100 μM, 12 days after inoculation
Procedure: FIG. 2 is a diagram showing the anti-HBV effect of a peptide from initial screening. FIG. 2(a) is a schematic diagram of a HepG2-hNTCP-C4 infection experiment. HepG2-hNTCP-C4 cells were pretreated with a peptide for 2 hours and subsequently inoculated with HBV for 16 hours in the presence of the peptide. Free HBV and peptide were washed off. Then, the cells were further cultured for 12 days in the absence of the peptide, and HBV infection was evaluated on the basis of measurement of HBs antigen in the culture supernatant. The filled boxes and the broken-line boxes depict periods for which the treatment was performed and periods for which the treatment was not performed, respectively. […] HBV infection was evaluated by monitoring HBs antigen secreted into a culture supernatant on 12 days after inoculation by ELISA. In FIG. 2(c), a cell survival rate was measured by MTT assay.
FIG. 3 is a diagram showing the anti-HBV effect of a peptide by focused library screening. […] HBV infection was evaluated by measurement of HBe antigen (a), and a cell survival rate (b) was evaluated by MTT assay as shown in FIG. 2.
HBV genotype D used in this study (FIGS. 1 to 3) was derived from the culture supernatant of Hep38.7-Tet cells, and prepared by a known method (the method described in Tsukuda, S. et al. Dysregulation of retinoic acid receptor diminishes hepatocyte permissiveness to hepatitis B virus infection through modulation of sodium taurocholate cotransporting polypeptide (NTCP) expression. The Journal of biological chemistry 290, 5673-5684 (2015), and Ogura, N., Watashi, K., Noguchi, T. & Wakita, T. Formation of covalently closed circular DNA in Hep38.7-Tet cells, a tetracycline inducible hepatitis B virus expression cell line. Biochemical and biophysical research communications 452, 315-321 (2014)). Purified HBV (FIG. 1(d)) was prepared by ultrafiltration to remove an excess of components in FBS and medium. HBV genotypes A, B, and C and genotype C having the L180M/S202G/M204V mutations (nucleoside analog-resistant HBV) or G145R substitution (vaccine-escape HBV) (FIG. 4(d)) were prepared from the culture supernatant of HepG2 cells transfected with the corresponding expression plasmid. HBV was inoculated at 12,000 (FIGS. 1(a), 1(b), and 1(d)), 1000 to 2000 (FIG. 2(b)) or 500 (FIGS. 3(a) and 4(d)) genome equivalents (GEq)/cell in the presence of 4% polyethylene glycol 8000 (PEG8000) and incubated at 37° C. for 16 hours by a known method (the method described in Watashi, K. et al. Interleukin-1 and tumor necrosis factor-alpha trigger restriction of hepatitis B virus infection via a cytidine deaminase activation-induced cytidine deaminase (AID). The Journal of biological chemistry 288, 31715-31727 (2013)).
HBe antigen was detected by a chemiluminescence immunoassay (CLIA) (LSI Medience Corp.). HBs antigen was quantified by enzyme-linked immunosorbent assay (ELISA) as described in a known method (the method described in Watashi, K. et al. Interleukin-1 and tumor necrosis factor-alpha trigger restriction of hepatitis B virus infection via a cytidine deaminase activation-induced cytidine deaminase (AID). The Journal of biological chemistry 288, 31715-31727 (2013)).
Subsequently, the present inventors evaluated the effect of the 10 peptides described above on HBV infection in primary human hepatocytes. […] HBV infection was evaluated by measuring HBs antigen in the culture supernatant. […]

HepG2-hNTCP-C4 cells = conditions: HBV infection assay
Procedure: HBs antigen secreted into a culture supernatant (a) and HBc antigen in the cells (b) were detected by ELISA and an immunofluorescence method, respectively. A cell survival rate was measured by quantifying total cellular DNA (c). […] Data is indicated by mean±SD. Statistical significance was determined by use of Student's t test as to all numbers (*P<0.05, **P<0.01, N.S.: not significant).

[1] = target: T2, human NTCP on cells (HepG2-hNTCP-C4 …); assay: cell-based or functional assay
[2] = target: T3, His-tagged recombinant NTCP protein …; assay: SPR (Biacore T200), single-cycle kinetics, His-NTCP on Ni2+-NTA chip, peptide as analyte, 1:1 model

Molecule | Kd (human NTCP; Kd) | 50% inhibitory concentration (IC50), HBs antigen in culture supernatant, HBV infection assay [1] | Kd [2] | other results
CC[C@H](C)[C@@H]1NC(=O)[C@H](Cc2ccc(O)cc2)NC(=O)CSC[C@@H](C(=O)N[C@H](C(N)=O)[C@@H](C)O)NC(=O)[C@H](Cc2ccc(O)cc2)NC(=O)[C@H]([C@@H](C)CC)NC(=O)[C@H](C(C)C)NC(=O)[C@H](Cc2ccc(O)cc2)NC(=O)CNC(=O)[C@@H]2CCCN2C(=O)[C@H](Cc2c[nH]c3ccccc23)NC(=O)[C@H]([C@@H](C)CC)NC(=O)[C@H](Cc2c[nH]c3ccccc23)NC1=O [WL2] ({CH2CO}-YIWIWPGYVIYCT-NH2; thioether N-12) | – | – | – | solubility: ~30 µM (≈ 51.5 µg/mL); Kd (human NTCP; read-out: Kd): 157 nM; IC50 (HBV genotype D; purified HBV as inoculum, HBs antigen in culture supernatant, read-out: 50% inhibitory concentrations (IC50), HBs antigen): 2540 ± 110 nM; cytotoxicity (cell survival rate, total cellular DNA) (HepG2-hNTCP-C4 cells): without marked cytotoxicity
CC[C@H](C)[C@@H]1NC(=O)[C@@H](Cc2ccc(O)cc2)NC(=O)CSC[C@@H](C(=O)NCC(N)=O)NC(=O)[C@H](CO)NC(=O)[C@H](Cc2ccc(O)cc2)NC(=O)[C@H](CC(C)C)NC(=O)[C@H](CC(C)C)NC(=O)[C@H](Cc2ccccc2)NC(=O)[C@H](CC(C)C)NC(=O)[C@H](Cc2c[nH]cn2)NC(=O)[C@H](CC(C)C)NC(=O)[C@H](CCC(=O)O)NC(=O)[C@@H]2CCCN2C(=O)[C@H](Cc2ccc(O)cc2)NC(=O)[C@H](C(C)C)NC(=O)[C@H](CC(C)C)NC1=O [D4] ({CH2CO}-[dY]ILVYPELHLFLLYSCG-NH2; thioether N-16) | 2270 nM | – | – | HBs antigen in the culture supernatant (HBV genotype D): most active
CC[C@H](C)[C@@H]1NC(=O)[C@H](C)NC(=O)[C@H](Cc2c[nH]c3ccccc23)NC(=O)[C@H](Cc2c[nH]c3ccccc23)NC(=O)[C@@H](Cc2ccc(O)cc2)NC(=O)CSC[C@@H](C(=O)NCC(N)=O)NC(=O)[C@@H]2CCCN2C(=O)[C@H](Cc2c[nH]c3ccccc23)NC(=O)[C@H]([C@@H](C)O)NC(=O)[C@H](Cc2ccccc2)NC(=O)[C@H](C(C)C)NC(=O)[C@H](Cc2c[nH]cn2)NC(=O)[C@H]([C@@H](C)CC)NC(=O)[C@H](Cc2c[nH]cn2)NC(=O)[C@@H]2CCCN2C(=O)[C@H](CC(N)=O)NC1=O [D2] ({CH2CO}-[dY]WWAINPHIHVFTWPCG-NH2; thioether N-16) | 14 nM | – | – | HBs antigen in the culture supernatant (HBV genotype D): most active
CC[C@H](C)[C@@H]1NC(=O)[C@H](Cc2c[nH]c3ccccc23)NC(=O)[C@H]([C@@H](C)CC)NC(=O)[C@H](CCC(N)=O)NC(=O)[C@H](C)N(C)C(=O)[C@H](Cc2ccc(O)cc2)NC(=O)[C@H]([C@@H](C)O)NC(=O)[C@H](Cc2ccccc2)NC(=O)[C@H]([C@@H](C)O)NC(=O)[C@@H](Cc2ccc(O)cc2)NC(=O)CSC[C@@H](C(=O)N[C@H](C(N)=O)[C@@H](C)O)NC(=O)CN(C)C(=O)[C@H](Cc2ccc(O)cc2)NC(=O)[C@H](Cc2ccc(O)cc2)NC(=O)[C@H](Cc2c[nH]c3ccccc23)NC1=O [WD4] ({CH2CO}-[dY]TFTY[NMeA]QIWIWYY[Sar]CT-NH2; thioether N-15) | 11 nM | – | – | –
CC(C)C[C@@H]1NC(=O)[C@H](Cc2ccc(O)cc2)NC(=O)[C@H](C)NC(=O)[C@H](CO)N(C)C(=O)[C@H](Cc2c[nH]cn2)NC(=O)[C@H](Cc2c[nH]c3ccccc23)NC(=O)[C@H]([C@@H](C)O)NC(=O)[C@H](Cc2c[nH]c3ccccc23)NC(=O)[C@H]([C@@H](C)O)NC(=O)[C@H](Cc2ccc(O)cc2)NC(=O)CSC[C@@H](C(=O)N[C@H](C(N)=O)[C@@H](C)O)NC(=O)[C@H](Cc2ccccc2)NC(=O)[C@H](C(C)C)NC(=O)[C@H](Cc2ccc(O)cc2)NC1=O [WL3] ({CH2CO}-YTWTWH[NMeS]AYLYVFCT-NH2; thioether N-14) | 57 nM | – | – | –
CC[C@H](C)[C@@H]1NC(=O)[C@H](Cc2ccc(O)cc2)NC(=O)[C@H](Cc2ccc(O)cc2)NC(=O)[C@H](Cc2c[nH]cn2)NC(=O)[C@H](Cc2c[nH]cn2)NC(=O)[C@H]([C@@H](C)O)NC(=O)[C@H](CC(N)=O)NC(=O)[C@H](Cc2c[nH]c3ccccc23)NC(=O)[C@H]([C@@H](C)O)NC(=O)[C@H](Cc2ccc(O)cc2)NC(=O)CSC[C@@H](C(=O)NCC(N)=O)NC(=O)[C@H](CC(N)=O)NC(=O)[C@H](CC(C)C)NC(=O)[C@H](Cc2c[nH]c3ccccc23)NC1=O [L5] ({CH2CO}-YTWNTHHYYIWLNCG-NH2; thioether N-14) | 4 nM | – | – | –
CC[C@H](C)[C@@H]1NC(=O)[C@H](Cc2c[nH]c3ccccc23)NC(=O)[C@H](CC(C)C)NC(=O)[C@H](Cc2ccc(O)cc2)NC(=O)CSC[C@@H](C(=O)NCC(N)=O)NC(=O)CNC(=O)[C@H](CC(C)C)NC(=O)[C@H](CC(=O)O)NC(=O)[C@H](Cc2ccccc2)NC(=O)[C@H]([C@@H](C)O)NC(=O)[C@H](Cc2ccc(O)cc2)NC(=O)[C@H](Cc2c[nH]c3ccccc23)NC(=O)[C@H](CC(N)=O)NC(=O)[C@H](CCC(N)=O)NC(=O)[C@H](Cc2c[nH]cn2)NC(=O)[C@H](Cc2ccccc2)NC1=O [L3] ({CH2CO}-YLWIFHQNWYTFDLGCG-NH2; thioether N-16) | 13 nM | – | – | –
YVIWIWPNHFYYCT (modifications not checked) [WL4] | – | 660 nM | 42 nM | –
YIWIWPGYVIYCT (modifications not checked) [WL2] | – | 2540 nM | 157 nM | –
YFIIVGTWTWTWSCT (modifications not checked) [WD1] | – | 850 nM | 15 nM | –

Reference: US20210061859A1, “NTCP Inhibitor” (The University of Tokyo, priority 2018, published 2021)
